PMC6941952, “A homogeneous bioluminescent immunoassay to probe cellular signaling pathway regulation” (Communications Biology, 2020)
Values joined by “and” are separate entries in the source; they are usually repeats but may differ in a detail not shown here. Equal entries are not always repeated.

Tested on: phospho-IκBα (Ser32)
Test: NanoBiT cell-based immunoassay, phosphorylated IκBα in MCF-7 cells
Parameters: species or system human
Conditions: for Fold change (TNF-treated /Non-treated): P-IkB; for P-IkB Average / Average: background subtracted
Protocol: Prior to NanoBiT Cell-Based Immunoassay, 50,000 cells were seeded in 160 µl of complete growth media per well of a 96-well plate and incubated overnight. The cells were checked under microscope and it was determined that 50,000 cells per well in 96-well plate is under 90% confluency for all cells tested. If necessary, the cell culture media were replaced with serum-free media after the cells were stably adherent on the plate and incubated overnight. To treat cells with activators or inhibitors, medium was changed to 30 µl of medium containing inhibitors. If activation of a specific pathway is needed, the cells were stimulated with 10 µl of medium containing activators. To lyse the cells, 10 µl of lysis buffer containing 0.1% digitonin diluted in 1X immunoassay buffer with protease and phosphatase inhibitors was added and the plates were mixed vigorously for 20 min. Then, 50 µl of an antibody mix containing two primary antibodies against the target protein and NanoBiT detecting antibodies (0.3 µl each per well), diluted in 1X immunoassay buffer was added to the lysates. The plates were incubated at 23 °C for 90 min, followed by the addition of 25 µl of Nano-Glo® reagent consisting of Nano-Glo® Luciferase Assay Substrate mixed with 1X immunoassay buffer. Luminescence was measured using a plate-reading luminometer.
In all, 50,000 MCF-7 cells were seeded in 160 µl complete growth medium per well of a 96-well plate and incubated overnight. Half of the cells were treated with 50 ng per ml TNFα and half with vehicle. Cells were lysed as described above and a mixture of NanoBiT secondary antibodies with primary antibodies at the matrix concentrations described in Fig. 2a were added. After 90 min incubation, the Nano-Glo® reagent was added to the reactions as described above and luminescence was measured using a plate-reading luminometer.
Single dose or dose response inhibitor treatments were performed prior to activation of the pathways as follows. For IκBα, the cells were treated in 30 µl medium with IKK16 or MG132 for 60 min before the addition of 10 µl of DMEM containing appropriate concentration of TNFα. To measure phosphorylation of AKT or STAT3, the corresponding NanoBiT immunoassays were developed with MCF-7 or A431 cells, respectively, according the same scheme used to develop the IκBα assay using the primary antibodies for AKT and STAT3 described in the reagents section. For the AKT assay, MCF-7 cells were incubated overnight in phenol-red free DMEM medium (Gibco #21063-029) without serum. Treatment with LY294002 was performed in 30 µl medium and cells were incubated for 60 min before the addition of 1 µM Insulin. To measure STAT3 phosphorylation, A431 cells were incubated overnight in DMEM medium without serum. […] After addition of the stimulators, the cells were incubated for additional times as follows. IκBα phosphorylation and degradation analyses required both time courses and single time points as described in figures. […] The NanoBiT immunoassay protocol was followed as described above.
All 96-well assay plates were read using a GloMax® 96 Microplate Luminometer from Promega. The instrument was set to 0.5 s integration time. In order to obtain net change of signal, the reagent background values (signal from the well containing all reagent except primary antibodies) were subtracted from the sample values. To plot and analyze the data, Microsoft Excel and GraphPad Prism® Software were used. IC50 values were determined by using a nonlinear regression fit to a sigmoidal dose response (variable slope).

[1] = Figure 2b, Ab incubation 5 min, listed as TNF
[2] = Figure 2b, Ab incubation 10 min, listed as TNF
[3] = Figure 2b, Ab incubation 60 min, listed as TNF
[4] = Figure 2b, Ab incubation 90 min, listed as TNF
[5] = Figure 2b, Ab incubation 120 min, listed as TNF
[6] = Figure 2b, Ab incubation 10 min
[7] = Figure 2b, Ab incubation 30 min
[8] = Figure 2b, Ab incubation 60 min
[9] = Figure 2b, Ab incubation 90 min
[10] = Figure 2b, Ab incubation 120 min
[11] = Figure 2c, Cell # 3500, listed as TNF
[12] = Figure 2c, Cell # 7000, listed as TNF
[13] = Figure 2c, Cell # 14000, listed as TNF
[14] = Figure 2c, Cell # 21000, listed as TNF
[15] = Figure 2c, Cell # 28000, listed as TNF
[16] = Figure 2c, Cell # 35000, listed as TNF
[17] = Figure 2c, Cell # 42000, listed as TNF
[18] = Figure 2c, Cell # 49000, listed as TNF
[19] = Figure 2c, Cell # 56000, listed as TNF
[20] = Figure 2c, Cell # 63000, listed as TNF
[21] = Figure 3a and 3b, listed as TNF
[22] = No MG132, TNF 2 min, listed as TNF
[23] = No MG132, TNF 4 min, listed as TNF
[24] = No MG132, TNF 10 min, listed as TNF
[25] = No MG132, TNF 12 min, listed as TNF
[26] = No MG132, TNF 15 min, listed as TNF
[27] = No MG132, TNF 30 min, listed as TNF
[28] = plate #1, IkB Ab #1 75 ng/ml, P-IkB Ab #1 75 ng/ml, TNF

Substance: TNFα
- P-IkB Raw data [1]: 13050
- P-IkB Subtract reagent background [1]: 1653 and 2223 and 1733
- P-IkB Raw data [2]: 15430
- P-IkB Subtract reagent background [2]: 4075 and 4145 and 2725
- P-IkB Subtract reagent background (Figure 2b, Ab incubation 30 min, listed as TNF): 11622 and 12702 and 12152
- P-IkB Raw data [3]: 35930
- P-IkB Subtract reagent background [3]: 23000 and 23900 and 26790
- P-IkB Raw data [4]: 44160
- P-IkB Subtract reagent background [4]: 32005 and 32085 and 32105
- P-IkB Raw data [5]: 26480
- P-IkB Subtract reagent background [5]: 19503 and 18993 and 21543
- Fold change (TNF-treated /Non-treated) (Figure 2b, Ab incubation 5 min): -51
- Fold change (TNF-treated /Non-treated) [6]: 25
- Fold change (TNF-treated /Non-treated) [7]: 10
- Fold change (TNF-treated /Non-treated) [8]: 14
- Fold change (TNF-treated /Non-treated) [9]: 13
- Fold change (TNF-treated /Non-treated) [10]: 12
- P-IkB Average (Figure 2b, Ab incubation 5 min): 1870
- P-IkB Average [6]: 3648
- P-IkB Average [7]: 12158
- P-IkB Average [8]: 24563
- P-IkB Average [9]: 32065
- P-IkB Average [10]: 20013
- Raw data [11]: 19860 and 20790
- Subtract background [11]: 6010 and 6150
- Raw data [12]: 22450 and 23090
- Subtract background [12]: 8600 and 8450
- Raw data [13]: 26500 and 26620
- Subtract background [13]: 12650 and 11980
- Raw data [14]: 26350 and 27260
- Subtract background [14]: 12500 and 12620
- Raw data [15]: 29180 and 29230
- Subtract background [15]: 15330 and 14590
- Raw data [16]: 32490 and 30000
- Subtract background [16]: 18640 and 15360
- Raw data [17]: 35680 and 35010
- Subtract background [17]: 21830 and 20370
- Raw data [18]: 36150 and 38410
- Subtract background [18]: 22300 and 23770
- Raw data [19]: 38800 and 38570
- Subtract background [19]: 24950 and 23930
- Raw data [20]: 40840 and 40330
- Subtract background [20]: 26990 and 25690
- Average (Figure 2c, Cell # 3500): 6080
- Average (Figure 2c, Cell # 7000): 8525
- Average (Figure 2c, Cell # 14000): 12315
- Average (Figure 2c, Cell # 21000): 12560
- Average (Figure 2c, Cell # 28000): 14960
- Average (Figure 2c, Cell # 35000): 17000
- Average (Figure 2c, Cell # 42000): 21100
- Average (Figure 2c, Cell # 49000): 23035
- Average (Figure 2c, Cell # 56000): 24440
- Average (Figure 2c, Cell # 63000): 26340
- P-IkB Average (Figure 3a and 3b): 18603
- P-IkB Raw data [21]: 40970 and 39480 and 37340
- P-IkB Subtract reagent background [21]: 20310 and 18820 and 16680
- P-IkB Average (No MG132, TNF 2 min): 1340
- P-IkB Raw data [22]: 17500 and 17960 and 17760 and 18420
- P-IkB Subtract reagent background [22]: 930 and 1390 and 1190 and 1850
- P-IkB Average (No MG132, TNF 4 min): 2908
- P-IkB Raw data [23]: 18550 and 18960 and 19930 and 20470
- P-IkB Subtract reagent background [23]: 1980 and 2390 and 3360 and 3900
- P-IkB Average (No MG132, TNF 6 min): 9185
- P-IkB Raw data (No MG132, TNF 6 min, listed as TNF): 21700 and 24830 and 27800 and 28690
- P-IkB Average (No MG132, TNF 8 min): 17540
- P-IkB Raw data (No MG132, TNF 8 min, listed as TNF): 27040 and 33390 and 37550 and 38460
- P-IkB Average (No MG132, TNF 10 min): 21585
- P-IkB Raw data [24]: 32290 and 37160 and 40510 and 42660
- P-IkB Subtract reagent background [24]: 15720 and 20590 and 23940 and 26090
- P-IkB Average (No MG132, TNF 12 min): 19345
- P-IkB Raw data [25]: 33820 and 35920 and 37120 and 36800
- P-IkB Subtract reagent background [25]: 17250 and 19350 and 20550 and 20230
- P-IkB Average (No MG132, TNF 15 min): 13560
- P-IkB Raw data [26]: 29860 and 30140 and 30400 and 30120
- P-IkB Subtract reagent background [26]: 13290 and 13570 and 13830 and 13550
- P-IkB Average (No MG132, TNF 30 min): 3855
- P-IkB Raw data [27]: 20170 and 19970 and 20370 and 21190
- P-IkB Subtract reagent background [27]: 3600 and 3400 and 3800 and 4620
- Raw data [28]: 32920
- Subtract reagent background [28]: 14010
